Test results: ChEMBL document CHEMBL1154088, “Synthesis, biological evaluation and docking studies of novel benzopyranone congeners for their expected activity as anti-inflammatory, analgesic and antipyretic agents” (Bioorg Med Chem, 2009)

Tests used:
Mus musculus [1] = experiment: Analgesic activity in mouse assessed as protection against acetic acid-induced writhing at one-tenth of LD50 administered subcutaneously 30 mins before acetic acid challenge measured after 4 hrs relative to control; format: functional
Rattus norvegicus [2] = experiment: Antipyretic activity against yeast-induced hyperpyrexia in hyperthermic rat assessed as rectal temperature at one-tenth of LD50 administered subcutaneously 18 hrs after yeast challenge measured after 1 hr (Rvb=39.24 +/- 0.22 degC); format: functional
Rattus norvegicus [3] = experiment: Antipyretic activity against yeast-induced hyperpyrexia in hyperthermic rat assessed as rectal temperature at one-tenth of LD50 administered subcutaneously 18 hrs after yeast challenge measured after 2 hrs (Rvb=39.11 +/- 0.26 degC); format: functional
Rattus norvegicus [4] = experiment: Antipyretic activity against yeast-induced hyperpyrexia in hyperthermic rat assessed as rectal temperature at one-tenth of LD50 administered subcutaneously 18 hrs after yeast challenge measured after 3 hrs (Rvb=39.20 +/- 0.24 degC); format: functional
Rattus norvegicus [5] = experiment: Antipyretic activity against yeast-induced hyperpyrexia in hyperthermic rat assessed as rectal temperature at one-tenth of LD50 administered subcutaneously 18 hrs after yeast challenge measured after 4 hrs (Rvb=39.17 +/- 0.20 degC); format: functional
[6] = Toxicity in sc dosed albino mouse up to 24 hrs; format: organism-based; settings: in vivo
Rattus norvegicus [7] = experiment: Antiinflammatory activity against carrageenan-induced foot paw edema in rat assessed as reduction in paw size at one-tenth of LD50 administered subcutaneously 30 mins before carrageenan challenge measured after 3 hrs relative to control; format: functional; set-up: scale not given: the % may be the effect or the level left
Mus musculus [8] = experiment: Analgesic activity in mouse assessed as protection against acetic acid-induced writhing at one-tenth of LD50 administered subcutaneously 30 mins before acetic acid challenge measured after 1 hr relative to control; format: functional
Mus musculus [9] = experiment: Analgesic activity in mouse assessed as protection against acetic acid-induced writhing at one-tenth of LD50 administered subcutaneously 30 mins before acetic acid challenge measured after 2 hrs relative to control; format: functional
Mus musculus [10] = experiment: Analgesic activity in mouse assessed as protection against acetic acid-induced writhing at one-tenth of LD50 administered subcutaneously 30 mins before acetic acid challenge measured after 3 hrs relative to control; format: functional

SMILES	Activity (Mus musculus [1])	Activity (Rattus norvegicus [2])	Activity (Rattus norvegicus [3])	Activity (Rattus norvegicus [4])	Activity (Rattus norvegicus [5])	LD50 at 24 h [6]	Activity (Rattus norvegicus [7])	Activity (Mus musculus [8])	Activity (Mus musculus [9])	Activity (Mus musculus [10])
COc1ccc(C2CC(c3c(O)ccc4c(-c5ccccc5)cc(=O)oc34)=NN2)cc1 (stereo not given)	0.71%	38.81 °C	38.91 °C	38.91 °C	39.15 °C	330 mg/kg	8.7%	10%	10.71%	5.23%
COc1ccc(-c2cc(-c3c(O)ccc4c(-c5ccccc5)cc(=O)oc34)[nH]c(=O)c2C#N)cc1	1.18%	38.81 °C	38.71 °C	38.64 °C	38.91 °C	330 mg/kg	5.78%	0.94%	2.84%	9.47%
C/C(=N\Nc1ccc([N+](=O)[O-])cc1[N+](=O)[O-])c1c(O)ccc2c(-c3ccccc3)cc(=O)oc12	4.47%	38.42 °C	38.05 °C	38.34 °C	38.93 °C	370 mg/kg	0.67%	16.7%	18.35%	13.41%
O=c1cc(-c2ccccc2)c2ccc(O)c(C3=NN(c4ccccc4)C(c4ccc(Cl)cc4)C3)c2o1 (stereo not given)	3.11%	38.91 °C	38.81 °C	38.91 °C	39.05 °C	330 mg/kg	18.85%	0.71%	2.63%	3.35%
O=c1cc(-c2ccccc2)c2ccc(O)c(C3=NN(c4ccc([N+](=O)[O-])cc4[N+](=O)[O-])C(c4ccc(Cl)cc4)C3)c2o1 (stereo not given)	1.4%	38.81 °C	38.91 °C	38.91 °C	38.94 °C	390 mg/kg	11.27%	0.93%	1.4%	0.93%
COc1ccc(C2CC(c3c(O)ccc4c(-c5ccccc5)cc(=O)oc34)=NN2c2ccc([N+](=O)[O-])cc2[N+](=O)[O-])cc1 (stereo not given)	3.58%	38.81 °C	38.91 °C	38.91 °C	38.91 °C	370 mg/kg	11.61%	3.58%	4.78%	3.58%
N#Cc1c(-c2ccccc2O)cc(-c2c(O)ccc3c(-c4ccccc4)cc(=O)oc23)[nH]c1=O	6.38%	38.34 °C	38.2 °C	38.47 °C	38.91 °C	290 mg/kg	4.33%	41.84%	30.49%	19.14%
CN(C)c1ccc(/C=C/C(=O)c2c(O)ccc3c(-c4ccccc4)cc(=O)oc23)cc1	9.41%	38.31 °C	38.21 °C	38.51 °C	38.86 °C	390 mg/kg	17.4%	37.41%	36.94%	22.82%
CN(C)c1ccc(-c2cc(-c3c(O)ccc4c(-c5ccccc5)cc(=O)oc34)[nH]c(=O)c2C#N)cc1	2.35%	38.91 °C	38.91 °C	38.9 °C	39.11 °C	390 mg/kg	7.24%	9.66%	7.54%	7.54%
CC(=O)c1c(O)ccc2c(-c3ccccc3)cc(=O)oc12	2.81%	38.91 °C	38.91 °C	39 °C	39.06 °C	290 mg/kg	20.27%	0%	2.34%	4.92%
N#Cc1c(-c2ccc(Cl)cc2)cc(-c2c(O)ccc3c(-c4ccccc4)cc(=O)oc23)[nH]c1=O	1.66%	38.91 °C	38.84 °C	38.81 °C	38.91 °C	310 mg/kg	16.35%	0%	1.18%	0.71%
CN(C)c1ccc(C2CC(c3c(O)ccc4c(-c5ccccc5)cc(=O)oc34)=NN2)cc1 (stereo not given)	2.11%	38.91 °C	38.9 °C	38.91 °C	38.91 °C	310 mg/kg	8.7%	1.41%	1.64%	2.35%
COc1cc(OC)c(-c2cc(-c3c(O)ccc4c(-c5ccccc5)cc(=O)oc34)[nH]c(=O)c2C#N)c(OC)c1	1.41%	38.91 °C	38.91 °C	38.81 °C	38.91 °C	390 mg/kg	5.78%	0.47%	0.7%	0.7%
COc1ccc(/C=C/C(=O)c2c(O)ccc3c(-c4ccccc4)cc(=O)oc23)cc1	3.52%	38.91 °C	38.91 °C	38.95 °C	39.11 °C	290 mg/kg	12.35%	9.41%	9.41%	9.41%
COc1ccc(C2CC(c3c(O)ccc4c(-c5ccccc5)cc(=O)oc34)=NN2c2ccccc2)cc1 (stereo not given)	6.63%	38.51 °C	38.14 °C	38.44 °C	38.87 °C	370 mg/kg	18.85%	41.23%	39.09%	18.24%
O=c1cc(-c2ccccc2)c2ccc(O)c(C3=NNC(c4ccc(Cl)cc4)C3)c2o1 (stereo not given)	1.18%	38.9 °C	38.84 °C	38.9 °C	38.91 °C	310 mg/kg	17.4%	0.71%	1.65%	1.65%
C/C(=N\Nc1ccccc1)c1c(O)ccc2c(-c3ccccc3)cc(=O)oc12	1.17%	39.11 °C	38.81 °C	38.91 °C	38.91 °C	290 mg/kg	12.35%	3.75%	2.58%	2.81%
O=C(/C=C/c1ccc(Cl)cc1)c1c(O)ccc2c(-c3ccccc3)cc(=O)oc12	0.94%	39.05 °C	38.91 °C	38.84 °C	38.91 °C	330 mg/kg	20.27%	0%	0.94%	1.65%
N#Cc1c(-c2cccnc2)cc(-c2c(O)ccc3c(-c4ccccc4)cc(=O)oc23)[nH]c1=O	0.95%	38.71 °C	38.81 °C	38.81 °C	38.91 °C	370 mg/kg	7.17%	8.8%	8.8%	3.57%
CN(C)c1ccc(C2CC(c3c(O)ccc4c(-c5ccccc5)cc(=O)oc34)=NN2c2ccccc2)cc1 (stereo not given)	6.82%	38.4 °C	38.01 °C	38.43 °C	38.88 °C	330 mg/kg	5.78%	39.76%	40.23%	20.47%
CN(C)c1ccc(C2CC(c3c(O)ccc4c(-c5ccccc5)cc(=O)oc34)=NN2c2ccc([N+](=O)[O-])cc2[N+](=O)[O-])cc1 (stereo not given)	7.29%	38.54 °C	38.1 °C	38.42 °C	38.91 °C	330 mg/kg	17.06%	36.94%	35.29%	19.05%
C/C(=N\c1ccccc1N)c1c(O)ccc2c(-c3ccccc3)cc(=O)oc12	1.64%	38.61 °C	38.41 °C	38.81 °C	38.9 °C	370 mg/kg	8.7%	9.85%	12.44%	9.62%
